Values joined by “and” are separate entries in the source; they are usually repeats but may differ in a detail not shown here. Equal values may be shown once.
Test system: 786-0 complex spheroids with HUVEC/MSC, growth % test/control
Experiment: Anticancer human tumor 786-0 cell line growth inhibition [AhR];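 note: compound exposure lasted seven days before the read-out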
Conditions: for viability, T/C: stronger effect = lower value
Procedure, shortened: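 Agents were dosed in half-log steps down from roughly clinical Cmax, or from 10 microM where Cmax was unknown, alone and with AhR antagonists. Read-out: percent test/control growth of tumor spheroids containing HUVEC and MSC stromal cells.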

`CCN(c1cc(-c2ccc(CN3CCOCC3)cc2)cc(C(=O)NCc2c(C)cc(C)[nH]c2=O)c1C)C1CCOCC1` + Cc1ccccc1N=Nc1ccc(NC(=O)c2ccnn2C)c(C)c1 gave an IC50 (curve of first compound, second compound 0.1 µM) of over 3 µM, an IC50 (curve of first compound, second compound 0.316 µM) of over 3 µM and an IC50 (curve of first compound, second compound 1 µM) of over 3 µM. The IC50 (curve of first compound, second compound 3.16 µM) was over 3 µM, the IC50 (curve of first compound, second compound 10 µM) was over 3 µM and the viability, T/C (second compound 0.1 µM, first compound 0.00949 µM) was 106%. For the same molecule, the viability, T/C (second compound 0.1 µM, first compound 0.03 µM) was 104%, the viability, T/C (second compound 0.1 µM, first compound 0.0949 µM) was 98.3% and the viability, T/C (second compound 0.1 µM, first compound 0.3 µM) was 107%. For the same molecule, the viability, T/C (second compound 0.1 µM, first compound 0.949 µM) was 101%, the viability, T/C (second compound 0.1 µM, first compound 3 µM) was 110% and the viability, T/C (second compound 0.316 µM, first compound 0.00949 µM) was 104%. For the same molecule, the viability, T/C (second compound 0.316 µM, first compound 0.03 µM) was 106%, the viability, T/C (second compound 0.316 µM, first compound 0.0949 µM) was 116% and the viability, T/C (second compound 0.316 µM, first compound 0.3 µM) was 111%. It also gave a viability, T/C (second compound 0.316 µM, first compound 0.949 µM) of 119%, a viability, T/C (second compound 0.316 µM, first compound 3 µM) of 118% and a viability, T/C (second compound 1 µM, first compound 0.00949 µM) of 112%. It also gave a viability, T/C (second compound 1 µM, first compound 0.03 µM) of 106%, a viability, T/C (second compound 1 µM, first compound 0.0949 µM) of 106% and a viability, T/C (second compound 1 µM, first compound 0.3 µM) of 97.4%. It also gave a viability, T/C (second compound 1 µM, first compound 0.949 µM) of 102%, a viability, T/C (second compound 1 µM, first compound 3 µM) of 98.6% and a viability, T/C (second compound 3.16 µM, first compound 0.00949 µM) of 109%. It also gave a viability, T/C (second compound 3.16 µM, first compound 0.03 µM) of 114%, a viability, T/C (second compound 3.16 µM, first compound 0.0949 µM) of 102% and a viability, T/C (second compound 3.16 µM, first compound 0.3 µM) of 93.3%. The viability, T/C (second compound 3.16 µM, first compound 0.949 µM) was 116%, the viability, T/C (second compound 3.16 µM, first compound 3 µM) was 94.2% and the viability, T/C (second compound 10 µM, first compound 0.00949 µM) was 106%. It also gave a viability, T/C (second compound 10 µM, first compound 0.03 µM) of 102%, a viability, T/C (second compound 10 µM, first compound 0.0949 µM) of 89.2% and a viability, T/C (second compound 10 µM, first compound 0.3 µM) of 100%. The viability, T/C (second compound 10 µM, first compound 0.949 µM) was 98.3% and the viability, T/C (second compound 10 µM, first compound 3 µM) was 103%.

In the case of `Nc1ncn(C2CC(O)C(CO)O2)c(=O)n1` (centres undefined), the viability, T/C (compound 0.00316 µM) is reported as 99.4% and 101% and 104%, the viability, T/C (compound 0.01 µM) is reported as 102% and 81.5% and 104% and the viability, T/C (compound 0.0316 µM) is reported as 98.7% and 88.8% and 106%. For the same molecule, the viability, T/C (compound 0.1 µM) was 96.5% and 86% and 94.8%, the viability, T/C (compound 0.316 µM) was 81.5% and 69.4% and 93.1% and the viability, T/C (compound 1 µM) was 85.2% and 54.8% and 84.6%. For the same molecule, the IC50 (curve of compound) was over 1 µM.

With `Nc1ccccc1NC(=O)c1ccc(CNC(=O)OCc2cccnc2)cc1` the viability, T/C (compound 0.0316 µM) was 105% and 107% and 108%, the viability, T/C (compound 0.1 µM) was 102% and 106% and 113% and the viability, T/C (compound 0.316 µM) was 106% and 102% and 111%. The viability, T/C (compound 1 µM) was 113% and 108% and 114%, the viability, T/C (compound 3.16 µM) was 73.9% and 96.8% and 86.7% and the viability, T/C (compound 10 µM) was 25.2% and 36.6% and 21.4%. For the same molecule, the IC50 (curve of compound) was 5.56 µM and 7.78 µM and 6.04 µM.
